# Literature values in the CATMoS acute toxicity set (Mansouri et al. 2021).
# Several values for one entry are separate records, joined by “and”; a condition that tells them apart may be missing. Identical values can stand only once.
# Test: rat acute oral toxicity
# Details: in vivo
row,SMILES,LD50
1,CCCCC(CC)CNc1ccccc1 (stereo not drawn),2410 mg/kg
2,C#CCN1CCC2=C(C1)c1c(OC(=O)CCCN3CCCCC3)cc(C(C)C(C)CCCCC)cc1OC2(C)C (stereo not drawn),130 mg/kg
3,CCC(O)(CC)c1[nH]ncc1Cl,236 mg/kg
4,C=CC(=O)OCC(=O)OCC,215 mg/kg
5,Cc1cc(O)ccc1S(C)(=O)=O,7000 mg/kg
6,CCN(CC)c1ccc(C=O)c(O)c1,2260 mg/kg
7,COc1ccccc1N1CCN(CCCNc2cc(=O)n(C)c(=O)n2C)CC1,520 mg/kg
8,O=[N+]([O-])c1ccc(O)cc1,320 mg/kg
9,CCOP(=S)(OCC)OCCS(=O)CC (stereo not drawn),100 mg/kg
10,CN(C)C(=O)C(CCN1CCC(O)(c2ccc(Cl)c(C(F)(F)F)c2)CC1)(c1ccccc1)c1ccccc1,86 mg/kg
11,C1CN(CCOCCN2CCOCC2)CCO1,2020 mg/kg
12,CCOP(=O)(OCC)SCC1(C)SCCS1,28 mg/kg
13,Nc1cccc(C(F)(F)F)c1,480 mg/kg
14,Nc1ccc2cc(S(=O)(=O)O)cc(O)c2c1N=Nc1ccc(-c2ccc(N=Nc3ccc(O)c(C(=O)O)c3)cc2)cc1,22400 mg/kg
15,CC(=O)c1cccc2ccccc12,1560 mg/kg
16,CC1Oc2ccccc2CC1N(C)C (stereo not drawn),812 mg/kg
17,CC(C)(C)NC[C@H](O)COc1nsnc1N1CCOCC1,1030 mg/kg
18,CCCOC(=O)CC(SP(=S)(OC)OC)C(=O)OCCC (stereo not drawn),6000 mg/kg
19,CCOP(=O)(OCC)Oc1ccc(Cl)cc1Cl,100 mg/kg
20,CC1CCC=C2N(C)C=C(C(=N)O)C(=O)N21 (stereo not drawn),750 mg/kg
21,Fc1c(Cl)c(Br)c2[nH]c(C(F)(F)F)nc2c1Cl,6.26 mg/kg
22,O[C@@H]([C@H](O)[C@H](O)CBr)[C@H](O)CBr,1500 mg/kg
23,O=S1(=O)CCN(c2ccccc2)CC1,800 mg/kg

row,SMILES,LD50
1,Cc1ccc(C)c(CCNC(N)=O)c1,2300 mg/kg
2,CCCC(=O)C(CC)Cc1ccccc1 (stereo not drawn),4400 mg/kg
3,COc1cc(C[C@H]2c3cc(OC)c(OC)cc3CCN2C)c(Oc2cc3c(cc2OC)-c2c(OC)c(OC)cc4c2[C@H](C3)N(C)CC4)cc1OC,1500 mg/kg
4,CC(C(=O)O)c1ccc(N2CC3=C(CC=CC3)C2=O)cc1 (stereo not drawn),328 mg/kg
5,CC(O)C1Sc2ccccc2N(CCCN(C)C)C1c1ccccc1 (stereo not drawn),800 mg/kg
6,CCCCCCCCCCCCCCCCC[N+](C)(C)C,3650 mg/kg
7,CCc1ncc(C)nc1C,456 mg/kg
8,CN1CCN(CCCCCCCCNC(=O)Oc2ccc3c(c2)C2(C)CCN(C)C2N3C)CC1 (stereo not drawn),27.7 mg/kg
9,COC1=CC=C2[C@H]3Cc4ccc(OC)c5c4[C@@]2(CCN3C)[C@H]1O5,114 mg/kg
10,CC(=O)Nc1ccncc1,446 mg/kg
11,CC(C)(N)Cc1ccc(Cl)cc1,150 mg/kg and 250 mg/kg
12,CC(C)(N)Cc1ccccc1Cl,332 mg/kg
13,Cn1c(=O)c2c(ncn2CC(=O)O)n(C)c1=O,900 mg/kg
14,CC(C)CNC(=O)CF,42 mg/kg
15,COP(=S)(OC)SCCSC(C)C,150 mg/kg
16,CN(C)c1ccc(C(O)(c2ccc(N(C)C)cc2)c2ccc(N(C)C)cc2)cc1,770 mg/kg
17,CN(C)CCC1(c2ccccc2)C=Cc2ccccc21 (stereo not drawn),385 mg/kg
18,CC(C)=CC1C(C(=O)OCc2ccc(C)cc2C)C1(C)C (stereo not drawn),40000 mg/kg
19,Nc1ccncc1,32 mg/kg
20,CN1CCC2(C)c3cc(OC(=O)NCCCCCCCCN4CCSCC4)ccc3N(C)C12 (stereo not drawn),23.8 mg/kg
21,O=S(=O)(Cl)c1ccccc1Cl,7500 mg/kg
22,CC(C)(C)CC(C)(C)S,52 mg/kg
23,C[Se]C,2100 mg/kg

row,SMILES,LD50
1,CCOC(C1=NCCCN1)c1ccc(Cl)c(Cl)c1 (stereo not drawn),370 mg/kg
2,CCN(CC)c1ccc(-c2nc(=O)n(C)nc2-c2ccc(N(CC)CC)cc2)cc1,650 mg/kg
3,CCOP(=S)(OC(C)C)Sc1nc(C)cc(C)n1 (stereo not drawn),68 mg/kg
4,O=S(=O)(Cl)c1ccccc1,1960 mg/kg
5,COc1c(Cl)cc(Cl)c(Cl)c1C(=O)O,300 mg/kg
6,CO[C@]12C[C@@H](COC(=O)c3cncc(Br)c3)CN(C)[C@@H]1Cc1cn(C)c3cccc2c13,1190 mg/kg
7,CC1(C)Cc2cccc(OC(=O)NCSc3ccc(C(C)(C)C)cc3)c2O1,125 mg/kg
8,C=CCSCC=C,2980 mg/kg
9,O=C(O)c1ccccc1C(=O)c1ccccc1,4600 mg/kg
10,CCC1C(c2ccccc2)=CCC(C(=O)O)C1C (stereo not drawn),2350 mg/kg
11,CCN1CCC(=C(c2ccccc2)c2ccccc2)C1,166 mg/kg and 450 mg/kg
12,C[Si](Cl)(Cl)CCC(F)(F)F,1000 mg/kg
13,C#CCOC(=O)/C=C(C)/C=C/CC(C)CCCC(C)C (stereo not drawn),4900 mg/kg
14,CC[C@@]1(O)C(=O)OCc2c1cc1n(c2=O)Cc2cc3ccccc3nc2-1,153 mg/kg
15,OC[C@H]1O[C@@H]2O[C@H]3[C@H](O)[C@@H](O)[C@@H](O[C@H]4[C@H](O)[C@@H](O)[C@@H](O[C@H]5[C@H](O)[C@@H](O)[C@@H](O[C@H]6[C@H](O)[C@@H](O)[C@@H](O[C@H]7[C@H](O)[C@@H](O)[C@@H](O[C@H]8[C@H](O)[C@@H](O)[C@@H](O[C@H]1[C@H](O)[C@H]2O)O[C@@H]8CO)O[C@@H]7CO)O[C@@H]6CO)O[C@@H]5CO)O[C@@H]4CO)O[C@@H]3CO,18800 mg/kg
16,O=C(OCC(O)C1COc2ccccc2O1)N1CCOCC1 (stereo not drawn),1500 mg/kg
17,N#CN=c1ccccn1Cc1ccccc1Cl,500 mg/kg
18,CC=CC(=O)OCC,3000 mg/kg
19,C[N+](C)(C)CCOP(=O)(O)OP(=O)(O)OC[C@H]1O[C@@H](n2ccc(N)nc2=O)[C@H](O)[C@@H]1O,18500 mg/kg
20,C=CC(=O)OCCOCC,1070 mg/kg
21,CNP1(=S)OCc2cc([N+](=O)[O-])ccc2O1 (stereo not drawn),125 mg/kg
22,COP(=S)(OC)OC1C2(C)CCC(C2)C1(C)C (stereo not drawn),250 mg/kg
23,CCOP(=O)(OC=CCl)OCC,7 mg/kg

row,SMILES,LD50
1,CN(C)c1c(Cl)c(Cl)c(Cl)c2nc(C(F)(F)F)[nH]c12,22 mg/kg
2,CC1=CC(=O)C(C)=C(C)C1=O,200 mg/kg
3,O=c1nn[nH]c2ccccc12,595 mg/kg
4,N#CC(Cl)CS(=O)(=O)c1ccccc1 (stereo not drawn),540 mg/kg
5,CCCCC(CC)COC(=O)CCCCCCCCCCC(=O)OCC(CC)CCCC (stereo not drawn),21500 mg/kg
6,CC(COc1ccc(Cl)cc1Cl)C(=O)O (stereo not drawn),800 mg/kg
7,C=CC(=O)OC(C)(C)C,1050 mg/kg
8,O=C(O)CSc1cc(Cl)ccc1Cl,1900 mg/kg
9,CN1CCC(N(Cc2ccccc2)c2ccccc2)CC1,460 mg/kg
10,Oc1ccccc1S,178 mg/kg
11,CCCc1ccc(C)cc1O,730 mg/kg
12,C=CCn1c(N)cc(=O)n(CC)c1=O,2300 mg/kg
13,CN(C)/N=N/c1ccc(C(N)=O)cc1,54 mg/kg
14,CC1=C(C)C(=O)C(C(CCCCCC(=O)O)c2ccccc2)=C(C)C1=O (racemic),3750 mg/kg
15,CC[C@H]1[C@@H]2C[C@H]3[C@@H]4N(C)c5ccccc5[C@]45C[C@@H](C2[C@H]5O)N3[C@@H]1O (stereo partly drawn),360 mg/kg
16,COC(C)CC(=O)O (stereo not drawn),3030 mg/kg
17,Cc1ncc(CSCc2cnc(C)c(O)c2CO)c(CO)c1O,7500 mg/kg
18,CCS(=O)(=O)CCSP(=O)(OC)OC,32.4 mg/kg
19,CON(C)C(=O)CC(SP(=S)(OC)OC)C(=O)N(C)OC (stereo not drawn),14 mg/kg
20,BrC(Br)C(Br)Br,1200 mg/kg
21,CCCCCCCCCCOC(=O)Cc1ccc(N(CCCl)CCCl)cc1,150 mg/kg
22,N[C@@H](CC(=O)O)C(=O)O,7940 mg/kg
23,C/C(=N/Nc1nc(C)cc(C)n1)c1ccccc1C,525 mg/kg

row,SMILES,LD50
1,Cl[C@H]1[C@H](Cl)[C@@H](Cl)[C@H](Cl)[C@@H](Cl)[C@H]1Cl (racemic),1000 mg/kg
2,COc1cc(C2NC(=O)CCS2)cc(OC)c1OC (stereo not drawn),5400 mg/kg
3,CCCCCC#CC(=O)OC,1530 mg/kg
4,CCC1(CCC(C)C)C(=O)NC(=O)NC1=O,250 mg/kg
5,O=NN(CCCl)C(=O)NCCS(=O)(=O)N1CCCCC1,125 mg/kg
6,COc1ccc(C(C)=O)cc1,1720 mg/kg
7,CN(c1ccc(F)cc1F)c1c([N+](=O)[O-])cc([N+](=O)[O-])cc1C(F)(F)F,250 mg/kg
8,CCCCCCCCP(=O)(O)O,1890 mg/kg
9,COc1ccc2cc([C@H](C)C(=O)OCCN3CCN(Cc4ccccc4)CC3)ccc2c1,1100 mg/kg
10,O=[N+]([O-])c1ccc(O)c(CNCCO)c1,23 mg/kg
11,O=P(OC=C(Cl)Cl)(OCCCl)OCCCl,25 mg/kg
12,COc1c(OC)c(Cl)c2[nH]c(C(F)(F)F)nc2c1Cl,100 mg/kg
13,CO[C@@H]1[C@@H](OC(N)=O)[C@@H](O)[C@H](Oc2ccc3c(O)c(NC(=O)c4ccc(O)c(CC=C(C)C)c4)c(=O)oc3c2C)OC1(C)C,3500 mg/kg
14,COc1ccccc1OC(=O)CNC(=O)Cc1ccc(C(=O)c2ccc(C)cc2)n1C,1450 mg/kg
15,Cc1cc(S(=O)(=O)O)cc(C)c1O,2650 mg/kg
16,CCCCN(N=O)C(N)=O,400 mg/kg
17,O=C(c1ccccc1)c1ccc(O)cc1,12100 mg/kg
18,C=CP(=O)(OCCCl)OCCCl,990 mg/kg
19,CCOC(=O)NNc1ccc(N(CC)CC(C)O)nn1 (stereo not drawn),2060 mg/kg
20,CCCCC(C)(C)O,820 mg/kg
21,Cc1ccc(Cl)cc1Cl,2400 mg/kg
22,O=Cc1ccccc1-c1ccccc1C=O,2830 mg/kg
23,O=C1c2ccccc2C(=O)c2c1cccc2S(=O)(=O)O,20000 mg/kg

row,SMILES,LD50
1,CCOP(=S)(OCC)Oc1ccc2c3c(c(=O)oc2c1)CCCC3,67 mg/kg
2,Cc1cccc(OCCC(C)C)c1N(C)C(=O)CCl,3300 mg/kg
3,Clc1ccc(S/N=N/c2cc(Cl)c(Cl)cc2Cl)cc1,4000 mg/kg
4,C1CSCCS1,2770 mg/kg
5,Fc1ccc(C(c2ccccc2)(c2ccccc2F)n2ccnc2)cc1 (stereo not drawn),808 mg/kg
6,CCCOC(=O)CC(SP(=O)(OC)OC)C(=O)OCCC (stereo not drawn),360 mg/kg
7,CCCSc1ccc2[nH]c(NC(=O)OC)nc2c1,2400 mg/kg
8,CCn1c2c(c3cccc(N)c31)CCCC2,1090 mg/kg
9,ClC(Cl)C(Cl)(Cl)Cl,920 mg/kg
10,CCN(CC)Cc1nccn1-c1ccc([N+](=O)[O-])cc1C(=O)c1ccccc1Cl,1580 mg/kg
11,COc1ccccc1N1CCN(CCCc2ccc3c(c2)CCC(=O)N3)CC1,500 mg/kg
12,CCOC(=O)C1(c2ccccc2)CCN(CCc2ccc(N)cc2)CC1,175 mg/kg
13,Cc1cc(=O)c2c(C)ccc(C)c2o1,2960 mg/kg
14,OC(CCl)CN1CCCN(CC(O)CCl)c2ccccc21 (stereo not drawn),750 mg/kg
15,CC(C)(Oc1ccc(C2CCCc3ccccc32)cc1)C(=O)O (stereo not drawn),900 mg/kg
16,Cc1cccc(C(=O)Cl)c1,3440 mg/kg
17,O=C(C=Cc1ccccc1)OCC=Cc1ccccc1,4200 mg/kg
18,CNS(=O)(=O)OCC(=O)N1CCCCCC1,2040 mg/kg
19,C/C(=C/CC[C@@]1(C)C2C[C@@H]3[C@H](C2)C31C)CO,3800 mg/kg
20,Oc1cccc2cccnc12,1200 mg/kg
21,C=Cc1ccc(C=O)o1,2080 mg/kg
22,CC(C)(C)c1ccc2c(c1)C(C)(C)CC2,15500 mg/kg
23,CC[N+](C)(C)C(C)CC(c1ccccc1)c1ccccc1 (stereo not drawn),1000 mg/kg
